In the test the target is SARS-CoV-2 NSP3 macrodomain (Mac1) (Severe acute respiratory syndrome coronavirus 2, UniProt P0DTD1). The test is classed as binding. The note with it: for PanDDA run, overall: Hit / PanDDA run, overall: Modeled / PanDDA run, DMSO background map: 1-BDC / PanDDA run, DMSO background map: Hit / PanDDA run, overall: Modeling comment / PanDDA run, TFA/DMSO background map: 1-BDC / PanDDA run, TFA/DMSO background map: Hit: crystal soak 10 mM; for PanDDA run, overall: Hit / PanDDA run, overall: Modeled / PanDDA run, overall: Modeling comment: P43 crystal form; for Total number of conformations: ligand conformations modeled in the crystal structure; for 2*(1-BDC) (%): occupancy estimate from PanDDA.

Where [1] appears, read: PanDDA background density correction factor.
The mark [2] stands for this setting: TRUE = crystal structure with ligand obtained.
Setting [3] is: refined crystallographic occupancy.
Where [4] appears, read: site of ligand in X-ray crystal structure.
Setting [5] is: ligand-bound crystal structure obtained (TRUE).
Where [6] appears, read: site occupied in X-ray crystal structure.

Like-named read-outs stand apart in the source and are kept apart here.

`CCCC(CO)Nc1ncnc2[nH]ccc12` (centres unmarked) [AVI-3643]: the “Occupancy difference (refined_occupancy - 2*(1-BDC))” value (shortened to “Occupancy difference”) was 0; the “PanDDA run, overall: Hit” value is “TRUE”; the “PanDDA run, overall: Modeled” value is “TRUE”; the “PanDDA run, DMSO background map: 1-BDC” value amounted to 0.16. Besides, the “PanDDA run, DMSO background map: Hit” value was “TRUE”; the “Total number of conformations” value worked out at 1; the “2*(1-BDC) (%)” value was 32%. The compound further had a 1-BDC under setting [1] of 0.16. Further, the X-ray crystal structure result under setting [2] is reported as “TRUE”. The “Refined ligand occupancy (%)” value under setting [3] is 32%. Further, the Binding site result under setting [4] is recorded as “Adenosine”.

`C#CCC(CO)Nc1ncnc2[nH]ccc12` (centres unmarked) [AVI-3644]: the “Occupancy difference” value was determined as 0; the “PanDDA run, overall: Hit” value was “TRUE”; the “PanDDA run, overall: Modeled” value is reported as “TRUE”; the “PanDDA run, DMSO background map: 1-BDC” value is recorded as 0.18. Moreover, the “PanDDA run, DMSO background map: Hit” value is listed as “TRUE”; the “Total number of conformations” value was determined as 1; the “2*(1-BDC) (%)” value is 36%. Moreover, the 1-BDC under setting [1] is 0.18. In addition, the X-ray crystal structure entry under setting [2] is reported as “TRUE”. For the same compound, under setting [3], the “Refined ligand occupancy (%)” value is listed as 36%. In addition, the Binding site result under setting [4] is recorded as “Adenosine”.

In the case of `O=C(O)C(F)(F)F.OCC(Nc1ncnc2[nH]ccc12)C1CCCO1` (centres unmarked) [AVI-3645], the “PanDDA run, overall: Hit” value is given as “TRUE”; the “PanDDA run, overall: Modeling comment” value is reported as “Weak density, not modeled”; the “PanDDA run, DMSO background map: 1-BDC” value was 0.22; the “PanDDA run, DMSO background map: Hit” value was “TRUE”. The “PanDDA run, TFA/DMSO background map: 1-BDC” value is given as 0.12 and the “PanDDA run, TFA/DMSO background map: Hit” value was “TRUE”.

Regarding `OC1CCCN(c2ncnc3[nH]ccc23)C1` (centres unmarked) [AVI-3646], the “Occupancy difference” value stood at 0; the “PanDDA run, overall: Hit” value is listed as “TRUE”; the “PanDDA run, overall: Modeled” value is “TRUE”; the “PanDDA run, DMSO background map: 1-BDC” value is recorded as 0.22. The “PanDDA run, DMSO background map: Hit” value is reported as “TRUE”; the “Total number of conformations” value was found to be 1; the “2*(1-BDC) (%)” value is 44%. Also, the 1-BDC under setting [1] is 0.22. Also, the X-ray crystal structure entry under setting [2] is “TRUE”. Moreover, under setting [3], the “Refined ligand occupancy (%)” value amounted to 44%. The Binding site entry (site of Mac1 occupied in the X-ray crystal structure) is “Adenosine”.

For `CC(C)(C)CC(CO)Nc1ncnc2[nH]ccc12` (centres unmarked) [AVI-3648], the “Occupancy difference” value was 0; the “PanDDA run, overall: Hit” value was “TRUE”; the “PanDDA run, overall: Modeled” value was “TRUE”; the “PanDDA run, DMSO background map: 1-BDC” value amounted to 0.13. Also, the “PanDDA run, DMSO background map: Hit” value is listed as “TRUE”; the “Total number of conformations” value is on record as 1; the “2*(1-BDC) (%)” value is on record as 26%. The compound further yielded a 1-BDC under setting [1] of 0.13. In addition, the X-ray crystal structure entry under setting [2] is listed as “TRUE”. The “Refined ligand occupancy (%)” value under setting [3] came to 26%. Moreover, the Binding site result under setting [4] is “Adenosine”.

On to `OCC(Nc1ncnc2[nH]ccc12)C1CCCC1` (centres unmarked) [AVI-3649], for which the “Occupancy difference” value worked out at 0; the “PanDDA run, overall: Hit” value is reported as “TRUE”; the “PanDDA run, overall: Modeled” value is “TRUE”; the “PanDDA run, DMSO background map: 1-BDC” value was determined as 0.16. Besides, the “PanDDA run, DMSO background map: Hit” value is listed as “TRUE”; the “Total number of conformations” value was 1; the “2*(1-BDC) (%)” value was 32%. Under setting [1], the 1-BDC is 0.16. For the same compound, under setting [2], the X-ray crystal structure result was “TRUE”. The “Refined ligand occupancy (%)” value under setting [3] amounted to 32%. The Binding site entry under setting [4] is given as “Adenosine”.

As for `OCC(Cc1c[nH]c2ccccc12)Nc1ncnc2[nH]ccc12` (centres unmarked) [AVI-3650], the “Occupancy difference” value came out at 0; the “PanDDA run, overall: Hit” value is reported as “TRUE”; the “PanDDA run, overall: Modeled” value was “TRUE”; the “PanDDA run, DMSO background map: 1-BDC” value turned out to be 0.15. In addition, the “PanDDA run, DMSO background map: Hit” value is “TRUE”; the “Total number of conformations” value is listed as 2; the “2*(1-BDC) (%)” value was 30%. The 1-BDC under setting [1] is given as 0.15. Also, the X-ray crystal structure result under setting [2] is listed as “TRUE”. For the same compound, the “Refined ligand occupancy (%)” value under setting [3] turned out to be 30%. Further, the Binding site result under setting [4] is “Adenosine”.

With `OC(c1ccccc1)C1CCCN1c1ncnc2[nH]ccc12` (centres unmarked) [AVI-3652], the “Occupancy difference” value is reported as 0; the “PanDDA run, overall: Hit” value is recorded as “TRUE”; the “PanDDA run, overall: Modeled” value is on record as “TRUE”; the “PanDDA run, DMSO background map: 1-BDC” value amounted to 0.22. Besides, the “PanDDA run, DMSO background map: Hit” value is “TRUE”; the “Total number of conformations” value was found to be 1; the “2*(1-BDC) (%)” value is reported as 44%. Moreover, the 1-BDC under setting [1] is reported as 0.22. Further, the X-ray crystal structure entry under setting [5] was “TRUE”. For the same compound, the “Refined ligand occupancy (%)” value under setting [3] worked out at 44%. The Binding site entry under setting [6] is given as “Adenosine”.

In the case of `O=C(O)C(F)(F)F.OC[C@@H](CCc1ccccc1)Nc1ncnc2[nH]ccc12` [AVI-3654], the “PanDDA run, overall: Hit” value is given as “TRUE”; the “PanDDA run, overall: Modeling comment” value is “Weak density for phenyl, not modeled”; the “PanDDA run, DMSO background map: 1-BDC” value was 0.14; the “PanDDA run, DMSO background map: Hit” value was “TRUE”. Also, the “PanDDA run, TFA/DMSO background map: 1-BDC” value turned out to be 0.07 and the “PanDDA run, TFA/DMSO background map: Hit” value was “TRUE”.

On to `CC1CCN(c2ncnc3[nH]ccc23)C1CO` (centres unmarked) [AVI-3655], for which the “Occupancy difference” value turned out to be 0; the “PanDDA run, overall: Hit” value is reported as “TRUE”; the “PanDDA run, overall: Modeled” value is “TRUE”; the “PanDDA run, DMSO background map: 1-BDC” value is 0.21. The “PanDDA run, DMSO background map: Hit” value is “TRUE”; the “Total number of conformations” value is on record as 1; the “2*(1-BDC) (%)” value was 42%. For the same compound, the 1-BDC under setting [1] stood at 0.21. The X-ray crystal structure result under setting [5] is on record as “TRUE”. Besides, under setting [3], the “Refined ligand occupancy (%)” value came to 42%. Moreover, under setting [6], the Binding site entry is on record as “Adenosine”.

In the case of `CO[C@@H]1C[C@H](CO)N(c2ncnc3[nH]ccc23)C1` [AVI-3656], the “Occupancy difference” value turned out to be 0; the “PanDDA run, overall: Hit” value is given as “TRUE”; the “PanDDA run, overall: Modeled” value is recorded as “TRUE”; the “PanDDA run, DMSO background map: 1-BDC” value was found to be 0.26. In addition, the “PanDDA run, DMSO background map: Hit” value is “TRUE”; the “Total number of conformations” value came to 1; the “2*(1-BDC) (%)” value was 52%. Further, the 1-BDC under setting [1] is recorded as 0.26. Further, the X-ray crystal structure entry under setting [5] is “TRUE”. The “Refined ligand occupancy (%)” value under setting [3] worked out at 52%. In addition, the Binding site entry under setting [6] is listed as “Adenosine”.

For the compound `Cn1cc(CC(CO)Nc2ncnc3[nH]ccc23)cn1` (centres unmarked) [AVI-3657], the “Occupancy difference” value stood at 0; the “PanDDA run, overall: Hit” value was “TRUE”; the “PanDDA run, overall: Modeled” value is reported as “TRUE”; the “PanDDA run, DMSO background map: 1-BDC” value stood at 0.15. Moreover, the “PanDDA run, DMSO background map: Hit” value is on record as “TRUE”; the “Total number of conformations” value is recorded as 1; the “2*(1-BDC) (%)” value is reported as 30%. This compound also returned a 1-BDC under setting [1] of 0.15. Also, the X-ray crystal structure result under setting [2] is given as “TRUE”. In addition, under setting [3], the “Refined ligand occupancy (%)” value is given as 30%. Further, the Binding site result under setting [4] is “Adenosine”.

`OCC(CC1OCCO1)Nc1ncnc2[nH]ccc12` (centres unmarked) [AVI-3658]: the “Occupancy difference” value came to 0; the “PanDDA run, overall: Hit” value was “TRUE”; the “PanDDA run, overall: Modeled” value is “TRUE”; the “PanDDA run, DMSO background map: 1-BDC” value is 0.2. Also, the “PanDDA run, DMSO background map: Hit” value was “TRUE”; the “Total number of conformations” value is on record as 1; the “2*(1-BDC) (%)” value is given as 40%. Further, the 1-BDC under setting [1] amounted to 0.2. Further, under setting [2], the X-ray crystal structure result is given as “TRUE”. Moreover, the “Refined ligand occupancy (%)” value under setting [3] came out at 40%. Further, under setting [4], the Binding site entry is reported as “Adenosine”.

Take `OCC(Nc1ncnc2[nH]ccc12)c1ccco1` (centres unmarked) [AVI-3659]: the “Occupancy difference” value was found to be 0; the “PanDDA run, overall: Hit” value is given as “TRUE”; the “PanDDA run, overall: Modeled” value was “TRUE”; the “PanDDA run, DMSO background map: 1-BDC” value came out at 0.16. For the same compound, the “PanDDA run, DMSO background map: Hit” value was “TRUE”; the “Total number of conformations” value turned out to be 1; the “2*(1-BDC) (%)” value was 32%. This compound also returned a 1-BDC under setting [1] of 0.16. For the same compound, the X-ray crystal structure result under setting [2] was “TRUE”. For the same compound, under setting [3], the “Refined ligand occupancy (%)” value is 32%. Moreover, the Binding site entry under setting [4] is reported as “Adenosine”.

As for `OCC(CC1CCCO1)Nc1ncnc2[nH]ccc12` (centres unmarked) [AVI-3660], the “Occupancy difference” value worked out at 0; the “PanDDA run, overall: Hit” value was “TRUE”; the “PanDDA run, overall: Modeled” value is reported as “TRUE”; the “PanDDA run, DMSO background map: 1-BDC” value was determined as 0.23. In addition, the “PanDDA run, DMSO background map: Hit” value is given as “TRUE”; the “Total number of conformations” value stood at 1; the “2*(1-BDC) (%)” value is given as 46%. The 1-BDC under setting [1] worked out at 0.23. In addition, the X-ray crystal structure entry under setting [2] is listed as “TRUE”. In addition, under setting [3], the “Refined ligand occupancy (%)” value is reported as 46%. The Binding site entry under setting [4] was “Adenosine”.

For the compound `OC1CCN(c2ncnc3[nH]ccc23)C1` (centres unmarked) [AVI-3661], the “PanDDA run, overall: Hit” value is on record as “TRUE”; the “PanDDA run, overall: Modeled” value is on record as “TRUE”; the “PanDDA run, DMSO background map: 1-BDC” value is on record as 0.15; the “PanDDA run, DMSO background map: Hit” value is reported as “TRUE”. For the same compound, the “2*(1-BDC) (%)” value is reported as 30%. Moreover, for the setting “PanDDA background density correction, 1-BDC”, the 1-BDC turned out to be 0.15. Further, the “Refined ligand occupancy (%)” value (crystallographic refinement) is 40%. Under setting [5], the X-ray crystal structure entry was “TRUE”. Besides, the Binding site result under setting [6] is “Adenosine”.

The values above are taken from paper PMC12118597 (Science Advances, 2025).
